Experimental findings from ChEMBL document CHEMBL1909046, “DrugMatrix in vitro pharmacology data” are described below.

One experiment deals with D(1A) dopamine receptor (Homo sapiens, UniProt P21728). In words: DRUGMATRIX: Dopamine D1 radioligand binding (ligand: [3H] SCH-23390). The class given is cell membranes, CHO, Membrane. The settings on record: Not Active = under 50% inhibition at 10 µM.
The nature of experiment [1]: DRUGMATRIX: GABAA, Muscimol, Central radioligand binding (ligand: [3H] Muscimol). The class given is cell membranes, Rattus norvegicus, Wistar, Brain, Membrane. The note with it: Not Active = under 50% inhibition at 10 µM.
A further experiment concerns the target T1, Adenosine receptor A1 (Homo sapiens, UniProt P30542).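 Note: radioligand binding assay at the adenosine A1 receptor, with DPCPX serving as the labelled ligand; in other assays of this panel Not Active means under 50% inhibition at 10 µM.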
T1 sequence (P30542 whole entry): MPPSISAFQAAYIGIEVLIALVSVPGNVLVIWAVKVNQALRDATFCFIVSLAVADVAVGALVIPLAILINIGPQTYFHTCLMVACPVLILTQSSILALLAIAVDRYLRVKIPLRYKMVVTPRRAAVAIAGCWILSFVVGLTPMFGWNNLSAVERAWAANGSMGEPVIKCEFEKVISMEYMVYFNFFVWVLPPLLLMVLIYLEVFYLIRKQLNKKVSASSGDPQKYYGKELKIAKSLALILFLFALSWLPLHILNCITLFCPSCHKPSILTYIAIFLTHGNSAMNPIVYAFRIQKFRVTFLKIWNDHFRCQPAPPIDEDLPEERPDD
The class given is cell membranes, CHO, Membrane.

A further experiment addresses Adenosine receptor A2a (Homo sapiens, UniProt P29274). In words: DRUGMATRIX: Adenosine A2A radioligand binding (ligand: […]). The class given is cell membranes, HEK293, Membrane. The settings on record: Not Active = under 50% inhibition at 10 µM.
The target in experiment [2] is 5-hydroxytryptamine receptor 1B (Rattus norvegicus, UniProt P28564). The class given is cell membranes, Wistar, Cerebral cortex, Membrane. Note: in other assays of this panel Not Active means under 50% inhibition at 10 µM.
Sequence of 5-hydroxytryptamine receptor 1B (P28564 whole entry): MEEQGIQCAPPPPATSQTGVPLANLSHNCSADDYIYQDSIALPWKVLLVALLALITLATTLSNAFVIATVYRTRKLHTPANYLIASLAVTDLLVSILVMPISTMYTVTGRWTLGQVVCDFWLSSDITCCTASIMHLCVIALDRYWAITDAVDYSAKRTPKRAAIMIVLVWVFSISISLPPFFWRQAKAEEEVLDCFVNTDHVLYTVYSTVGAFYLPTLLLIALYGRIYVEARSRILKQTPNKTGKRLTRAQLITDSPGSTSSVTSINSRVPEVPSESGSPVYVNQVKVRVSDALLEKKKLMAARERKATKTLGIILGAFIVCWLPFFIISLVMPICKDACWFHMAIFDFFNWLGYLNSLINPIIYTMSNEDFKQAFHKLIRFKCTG

Sequence of Adenosine receptor A2a (P29274 whole entry): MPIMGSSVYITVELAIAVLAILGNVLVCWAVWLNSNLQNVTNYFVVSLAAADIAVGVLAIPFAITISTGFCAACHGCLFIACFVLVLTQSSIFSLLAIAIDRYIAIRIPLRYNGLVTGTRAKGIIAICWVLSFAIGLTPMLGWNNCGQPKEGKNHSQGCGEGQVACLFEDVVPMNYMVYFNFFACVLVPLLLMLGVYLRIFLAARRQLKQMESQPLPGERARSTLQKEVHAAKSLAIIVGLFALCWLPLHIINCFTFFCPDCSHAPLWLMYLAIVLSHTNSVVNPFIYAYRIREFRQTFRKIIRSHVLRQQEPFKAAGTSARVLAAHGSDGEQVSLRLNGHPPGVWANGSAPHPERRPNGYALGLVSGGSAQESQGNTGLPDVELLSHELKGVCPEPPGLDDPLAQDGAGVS
Sequence of D(1A) dopamine receptor (P21728 whole entry): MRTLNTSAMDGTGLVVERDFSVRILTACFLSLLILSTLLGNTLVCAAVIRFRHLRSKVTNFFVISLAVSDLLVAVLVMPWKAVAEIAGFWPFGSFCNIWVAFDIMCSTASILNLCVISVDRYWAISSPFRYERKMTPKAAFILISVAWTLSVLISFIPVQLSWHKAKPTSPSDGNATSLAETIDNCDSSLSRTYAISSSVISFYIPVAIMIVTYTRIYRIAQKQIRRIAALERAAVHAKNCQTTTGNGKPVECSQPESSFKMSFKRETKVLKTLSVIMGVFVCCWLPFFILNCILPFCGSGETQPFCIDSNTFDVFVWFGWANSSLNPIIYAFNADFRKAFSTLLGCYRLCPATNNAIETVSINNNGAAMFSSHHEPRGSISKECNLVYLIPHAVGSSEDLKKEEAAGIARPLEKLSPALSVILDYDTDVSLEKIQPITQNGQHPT

With `CC[C@H]1OC(=O)[C@H](C)[C@@H](O[C@H]2C[C@@](C)(OC)[C@@H](O)[C@H](C)O2)[C@H](C)[C@@H](O[C@@H]2O[C@H](C)C[C@H](N(C)C)[C@H]2O)[C@](C)(O)C[C@@H](C)C(=O)[C@H](C)[C@@H](O)[C@]1(C)O` [ERYTHROMYCIN], the IC50 result (on D(1A) dopamine receptor (cho); in experiment [1]; at Adenosine receptor A1 (cho); on Adenosine receptor A2a (hek293); in experiment [2]) was “Not Active” throughout. Also, the inhibition constant (Ki) – broadly, a measure of affinity in units of concentration, obtained from inhibition or displacement – in experiment [1] was “Not Active”.

With `C[N+](C)(C)CCOP(=O)([O-])OC[C@H](O)CO`, the IC50 entry (at D(1A) dopamine receptor (cho); in experiment [1]; against Adenosine receptor A1 (cho); on Adenosine receptor A2a (hek293); in experiment [2]) was “Not Active” each time. In experiment [1], the inhibition constant Ki result is “Not Active”.

As to `Cc1cc(C(C)(C)C)c(O)c(C)c1CC1=NCCN1` [OXYMETAZOLINE], the 50% inhibitory concentration (IC50) – broadly, the midpoint of a concentration-inhibition curve – was “Not Active” on D(1A) dopamine receptor (cho); “Not Active” in experiment [1]; “Not Active” against Adenosine receptor A1 (cho); “Not Active” on Adenosine receptor A2a (hek293); 0.002 µM in experiment [2] (read-out: IC50). The Ki entry in experiment [1] was “Not Active”; in experiment [2] (read-out: Ki) it was 0.000909 µM.

`C[N+](C)(C)CCOC(N)=O.[Cl-]` [CARBACHOL]: the half-maximal inhibitory concentration (IC50) result (on D(1A) dopamine receptor (cho); in experiment [1]; against Adenosine receptor A1 (cho); on Adenosine receptor A2a (hek293); in experiment [2]) was “Not Active” in each case. Also, in experiment [1], the inhibition constant Ki entry is on record as “Not Active”.

As for `CCN(CCO)CCCC(C)Nc1ccnc2cc(Cl)ccc12` (centres undefined) [HYDROXYCHLOROQUINE], the IC50 result (on D(1A) dopamine receptor (cho); in experiment [1]; on Adenosine receptor A1 (cho); at Adenosine receptor A2a (hek293); in experiment [2]) was “Not Active” in each case. The Ki entry in experiment [1] is listed as “Not Active”.

For `O=C1c2ccccc2C(=O)C1c1ccccc1` [PHENINDIONE], the IC50 result (on D(1A) dopamine receptor (cho); in experiment [1]; at Adenosine receptor A1 (cho); at Adenosine receptor A2a (hek293); in experiment [2]) was “Not Active” throughout. Further, the inhibition constant Ki entry in experiment [1] is on record as “Not Active”.

Regarding `NC(N)=Nc1nc(CSCCC(N)=NS(N)(=O)=O)cs1` [FAMOTIDINE], the IC50 result (at D(1A) dopamine receptor (cho); in experiment [1]; against Adenosine receptor A1 (cho); at Adenosine receptor A2a (hek293); in experiment [2]) was “Not Active” throughout. In addition, the inhibitory constant (Ki) result in experiment [1] is on record as “Not Active”.

Consider `Cc1ccnc2c1NC(=O)c1cccnc1N2C1CC1` [NEVIRAPINE], for which the IC50 result (on D(1A) dopamine receptor (cho); in experiment [1]; against Adenosine receptor A1 (cho); at Adenosine receptor A2a (hek293); in experiment [2]) was “Not Active” in each case. In addition, the Ki result in experiment [1] is “Not Active”.

Regarding `CO[C@H]1O[C@@H]2O[C@@]3(C)CC[C@H]4[C@H](C)CC[C@@H]([C@H]1C)[C@@]24OO3`, the half-maximal inhibitory concentration (IC50) result (on D(1A) dopamine receptor (cho); in experiment [1]; against Adenosine receptor A1 (cho); on Adenosine receptor A2a (hek293); in experiment [2]) was “Not Active” throughout. The inhibition constant (Ki) entry in experiment [1] is “Not Active”.

Consider `CN(CCOc1ccc(C[C@H](Nc2ccccc2C(=O)c2ccccc2)C(=O)O)cc1)c1ccccn1`, for which the half-maximal inhibitory concentration (IC50) entry on D(1A) dopamine receptor (cho) is “Not Active”; in experiment [1], “Not Active”; on Adenosine receptor A1 (read-out: IC50), 15 µM; on Adenosine receptor A2a (read-out: IC50), 37.3 µM; in experiment [2] it was “Not Active”. Further, the values for the Ki entry (in experiment [1]; on Adenosine receptor A1 (read-out: Ki); at Adenosine receptor A2a (read-out: Ki)) were “Not Active”, 8.73 µM and 20.9 µM, respectively.

In the case of `c1ccc2sc(SSc3nc4ccccc4s3)nc2c1` [BENZOTHIAZYL DISULFIDE], the 50% inhibitory concentration (IC50) was 1.19 µM at D(1A) dopamine receptor (read-out: IC50); “Not Active” in experiment [1]; “Not Active” on Adenosine receptor A1 (cho); “Not Active” at Adenosine receptor A2a (hek293); “Not Active” in experiment [2]. Besides, the inhibition constant Ki on D(1A) dopamine receptor (read-out: Ki) was 0.595 µM; in experiment [1], “Not Active”.

Consider `NS(=O)(=O)c1cc(C(=O)O)c(NCc2ccco2)cc1Cl` [FUROSEMIDE], for which the IC50 entry (at D(1A) dopamine receptor (cho); in experiment [1]; against Adenosine receptor A1 (cho); at Adenosine receptor A2a (hek293); in experiment [2]) was “Not Active” throughout. Moreover, the inhibition constant Ki entry in experiment [1] is listed as “Not Active”.

Take `COc1ccc(C[C@H](N)C(=O)N[C@H]2[C@@H](O)[C@H](n3cnc4c(N(C)C)ncnc43)O[C@@H]2CO)cc1` [PUROMYCIN]: the 50% inhibitory concentration (IC50) entry (on D(1A) dopamine receptor (cho); in experiment [1]; on Adenosine receptor A1 (cho); at Adenosine receptor A2a (hek293); in experiment [2]) was “Not Active” each time. For the same compound, the inhibition constant Ki result in experiment [1] was “Not Active”.

On to `O=c1[nH]c2ccccc2c2ccccc12`, for which the IC50 result (on D(1A) dopamine receptor (cho); in experiment [1]; against Adenosine receptor A1 (cho); on Adenosine receptor A2a (hek293); in experiment [2]) was “Not Active” in each case. Besides, in experiment [1], the inhibition constant Ki result was “Not Active”.

For the compound COPPER(II) OXIDE, the half-maximal inhibitory concentration (IC50) result (at D(1A) dopamine receptor (cho); in experiment [1]; on Adenosine receptor A1 (cho); at Adenosine receptor A2a (hek293); in experiment [2]) was “Not Active” throughout. In addition, the Ki result (on D(1A) dopamine receptor (cho); in experiment [1]; on Adenosine receptor A1 (cho); at Adenosine receptor A2a (hek293); in experiment [2]) was “Not Active” throughout.

`CC12CCC(CC1)C(C)(C)O2` [EUCALYPTOL]: the concentration for half-maximal inhibition (IC50) result (on D(1A) dopamine receptor (cho); in experiment [1]; at Adenosine receptor A1 (cho); on Adenosine receptor A2a (hek293); in experiment [2]) was “Not Active” each time. Further, the Ki entry in experiment [1] is listed as “Not Active”.
